# Reference: publication PMC10178848, “Modulating fast skeletal muscle contraction protects skeletal muscle in animal models of Duchenne muscular dystrophy” (The Journal of Clinical Investigation, 2023)
# Test system: GRMD plasma proteins
# Format: in vivo, dog
# Conditions: EDG-5506 treatment to GRMD baseline; Increased in GRMD
compound,measurement,value
O=c1ccc(-c2cnc(OCC(F)(F)F)nc2)nn1Cc1cncc(F)c1 [EDG-5506],Change from GRMD Baseline (fraction): Fibronectin Fragment 4 (FN1),-0.0853 fraction
same,Change from GRMD Baseline (fraction): Follistatin (FST),-0.1433 fraction
same,Change from GRMD Baseline (fraction): Fractalkine (CX3CL1),-0.1153 fraction
same,Change from GRMD Baseline (fraction): Fructose-bisphosphate aldolase A (ALDOA),0.1605 fraction
same,Change from GRMD Baseline (fraction): G2/mitotic-specific cyclin-B1 (CCNB1),-0.0054 fraction
same,Change from GRMD Baseline (fraction): Galectin-4 (LGALS4),-0.0907 fraction
same,Change from GRMD Baseline (fraction): Galectin-7 (LGALS7),-0.1308 fraction
same,Change from GRMD Baseline (fraction): Glucose-6-phosphate isomerase (GPI),-0.4647 fraction
same,Change from GRMD Baseline (fraction): Glyceraldehyde-3-phosphate dehydrogenase (GAPDH),-0.5078 fraction
same,Change from GRMD Baseline (fraction): Glycogen synthase kinase-3 alpha/beta (GSK3A GSK3B),-0.3338 fraction
same,Change from GRMD Baseline (fraction): Granulocyte-macrophage colony-stimulating factor (CSF2),-0.2326 fraction
same,Change from GRMD Baseline (fraction): Growth factor receptor-bound protein 2 (GRB2),-0.3399 fraction
same,Change from GRMD Baseline (fraction): Growth/differentiation factor 5 (GDF5),-0.0403 fraction
same,Change from GRMD Baseline (fraction): Heat shock 70 kDa protein 1A (HSPA1A),-0.2859 fraction
same,Change from GRMD Baseline (fraction): Heat shock cognate 71 kDa protein (HSPA8),-0.3616 fraction
same,Change from GRMD Baseline (fraction): Heat shock protein HSP 90-alpha/beta (HSP90AA1 HSP90AB1),-0.1032 fraction
same,Change from GRMD Baseline (fraction): Heat shock protein HSP 90-beta (HSP90AB1),-0.0167 fraction
same,Change from GRMD Baseline (fraction): Heat shock protein beta-1 (HSPB1),-0.0454 fraction
same,Change from GRMD Baseline (fraction): Hepatoma-derived growth factor-related protein 2 (HDGFRP2),-0.0887 fraction
same,Change from GRMD Baseline (fraction): Heterogeneous nuclear ribonucleoprotein A/B (HNRNPAB),-0.2641 fraction
same,Change from GRMD Baseline (fraction): Heterogeneous nuclear ribonucleoprotein Q (SYNCRIP),-0.2959 fraction
same,Change from GRMD Baseline (fraction): Heterogeneous nuclear ribonucleoproteins A2/B1 (HNRNPA2B1),-0.2792 fraction
same,Change from GRMD Baseline (fraction): Hexokinase-2 (HK2),-0.2831 fraction
same,Change from GRMD Baseline (fraction): Histidine triad nucleotide-binding protein 1 (HINT1),-0.1184 fraction
same,Change from GRMD Baseline (fraction): Histone H1.2 (HIST1H1C),-0.2004 fraction
same,Change from GRMD Baseline (fraction): Histone deacetylase 8 (HDAC8),-0.1223 fraction
same,Change from GRMD Baseline (fraction): Homeodomain-interacting protein kinase 3 (HIPK3),0.4673 fraction
same,Change from GRMD Baseline (fraction): Immunoglobulin superfamily containing leucine-rich repeat protein 2 (ISLR2),0.163 fraction
same,Change from GRMD Baseline (fraction): Inducible T-cell costimulator (ICOS),-0.069 fraction
same,Change from GRMD Baseline (fraction): Inosine-5'-monophosphate dehydrogenase 2 (IMPDH2),-0.2973 fraction
same,Change from GRMD Baseline (fraction): Insulin-degrading enzyme (IDE),-0.2351 fraction
same,Change from GRMD Baseline (fraction): Insulin-like growth factor-binding protein 3 (IGFBP3),-0.1253 fraction
same,Change from GRMD Baseline (fraction): Intercellular adhesion molecule 5 (ICAM5),0.2028 fraction
same,Change from GRMD Baseline (fraction): Interferon alpha-10 (IFNA10),0.155 fraction
same,Change from GRMD Baseline (fraction): Interleukin-1 alpha (IL1A),-0.061 fraction
same,Change from GRMD Baseline (fraction): Interleukin-1 receptor-like 2 (IL1RL2),-0.0194 fraction
same,Change from GRMD Baseline (fraction): Interleukin-15 receptor subunit alpha (IL15RA),-0.1087 fraction
same,Change from GRMD Baseline (fraction): Interleukin-17F (IL17F),-0.0145 fraction
same,Change from GRMD Baseline (fraction): Interleukin-37 (IL37),-0.0864 fraction
same,Change from GRMD Baseline (fraction): Junctional adhesion molecule B (JAM2),-0.0925 fraction
same,Change from GRMD Baseline (fraction): Junctional adhesion molecule C (JAM3),-0.1846 fraction
same,Change from GRMD Baseline (fraction): Kallikrein-6 (KLK6),-0.0597 fraction
same,Change from GRMD Baseline (fraction): Kallikrein-12 (KLK12),0.0192 fraction
same,Change from GRMD Baseline (fraction): Kallikrein-14 (KLK14),-0.165 fraction
same,Change from GRMD Baseline (fraction): Kin of IRRE-like protein 3 (KIRREL3),-0.0664 fraction
same,Change from GRMD Baseline (fraction): Kremen protein 2 (KREMEN2),-0.1517 fraction
same,Change from GRMD Baseline (fraction): Kynureninase (KYNU),-0.1154 fraction
same,Change from GRMD Baseline (fraction): L-Selectin (SELL),-0.2072 fraction
same,Change from GRMD Baseline (fraction): L-lactate dehydrogenase B chain (LDHB),-0.3998 fraction
same,Change from GRMD Baseline (fraction): Leucine-rich repeat serine/threonine-protein kinase 2 (LRRK2),-0.1394 fraction
same,Change from GRMD Baseline (fraction): Leucine-rich repeat transmembrane protein FLRT1 (FLRT1),-0.1359 fraction
same,Change from GRMD Baseline (fraction): Low affinity immunoglobulin epsilon Fc receptor (FCER2),-0.0521 fraction
same,Change from GRMD Baseline (fraction): MAP kinase-activated protein kinase 2 (MAPKAPK2),-0.3216 fraction
same,Change from GRMD Baseline (fraction): MAP kinase-activated protein kinase 3 (MAPKAPK3),-0.2837 fraction
same,Change from GRMD Baseline (fraction): Macrophage scavenger receptor types I and II (MSR1),-0.0382 fraction
same,"Change from GRMD Baseline (fraction): Malate dehydrogenase, cytoplasmic (MDH1)",-0.1486 fraction
same,Change from GRMD Baseline (fraction): Methionine aminopeptidase 2 (METAP2),-0.1671 fraction
same,Change from GRMD Baseline (fraction): Microtubule-associated protein tau (MAPT),-0.2425 fraction
same,Change from GRMD Baseline (fraction): Mitogen-activated protein kinase 3 (MAPK3),-0.2851 fraction
same,Change from GRMD Baseline (fraction): Mitogen-activated protein kinase 8 (MAPK8),-0.2995 fraction
same,Change from GRMD Baseline (fraction): Mitogen-activated protein kinase 12 (MAPK12),-0.3528 fraction
same,Change from GRMD Baseline (fraction): Mitogen-activated protein kinase 14 (MAPK14),-0.2706 fraction
same,Change from GRMD Baseline (fraction): Mothers against decapentaplegic homolog 3 (SMAD3),-0.0452 fraction
same,Change from GRMD Baseline (fraction): Myeloblastin (PRTN3),0.0617 fraction
same,Change from GRMD Baseline (fraction): Myoglobin (MB),-0.422 fraction
same,"Change from GRMD Baseline (fraction): Myosin-binding protein C, slow-type (MYBPC1)",0.1932 fraction
same,Change from GRMD Baseline (fraction): NKG2D ligand 2 (ULBP2),-0.0329 fraction
same,Change from GRMD Baseline (fraction): NSFL1 cofactor p47 (NSFL1C),-0.3479 fraction
same,Change from GRMD Baseline (fraction): Natural cytotoxicity triggering receptor 3 (NCR3),-0.0271 fraction
same,Change from GRMD Baseline (fraction): Neuronal cell adhesion molecule (NRCAM),0.199 fraction
same,Change from GRMD Baseline (fraction): Neutral ceramidase (ASAH2),-0.1226 fraction
same,Change from GRMD Baseline (fraction): Nucleoside diphosphate kinase A (NME1),-0.3054 fraction
same,Change from GRMD Baseline (fraction): OCIA domain-containing protein 1 (OCIAD1),-0.019 fraction
same,Change from GRMD Baseline (fraction): Oncostatin-M (OSM),-0.0794 fraction
same,Change from GRMD Baseline (fraction): Opioid-binding protein/cell adhesion molecule (OPCML),-0.0946 fraction
same,Change from GRMD Baseline (fraction): PIK3CA/PIK3R1 (PIK3CA PIK3R1),-0.2992 fraction
same,Change from GRMD Baseline (fraction): Parathyroid hormone-related protein (PTHLH),-0.1165 fraction
same,Change from GRMD Baseline (fraction): Peptidyl-prolyl cis-trans isomerase E (PPIE),-0.2567 fraction
same,Change from GRMD Baseline (fraction): Peroxiredoxin-1 (PRDX1),-0.376 fraction
same,Change from GRMD Baseline (fraction): Peroxiredoxin-6 (PRDX6),-0.4044 fraction
same,Change from GRMD Baseline (fraction): Phosphatidylethanolamine-binding protein 1 (PEBP1),-0.1964 fraction
same,Change from GRMD Baseline (fraction): Phosphoglucomutase-1 (PGM1),-0.1676 fraction
same,Change from GRMD Baseline (fraction): Phosphoglycerate mutase 1 (PGAM1),0.2377 fraction
same,Change from GRMD Baseline (fraction): Plasma serine protease inhibitor (SERPINA5),-0.1552 fraction
same,Change from GRMD Baseline (fraction): Platelet glycoprotein 4 (CD36),-0.0717 fraction
same,Change from GRMD Baseline (fraction): Platelet-activating factor acetylhydrolase (PLA2G7),-0.1993 fraction
same,Change from GRMD Baseline (fraction): Platelet-derived growth factor receptor alpha (PDGFRA),-0.052 fraction
same,Change from GRMD Baseline (fraction): Proliferating cell nuclear antigen (PCNA),-0.2439 fraction
same,Change from GRMD Baseline (fraction): Protein NOV homolog (NOV),-0.0815 fraction
same,Change from GRMD Baseline (fraction): Protein S100-A12 (S100A12),-0.0694 fraction
same,Change from GRMD Baseline (fraction): RAC-alpha/beta/gamma serine/threonine-protein kinase (AKT1 AKT2 AKT3),-0.3391 fraction
same,Change from GRMD Baseline (fraction): RAC-beta serine/threonine-protein kinase (AKT2),-0.2794 fraction
same,Change from GRMD Baseline (fraction): Rab GDP dissociation inhibitor beta (GDI2),-0.3851 fraction
same,Change from GRMD Baseline (fraction): Receptor tyrosine-protein kinase erbB-3 (ERBB3),0.0234 fraction
same,Change from GRMD Baseline (fraction): Receptor-type tyrosine-protein kinase FLT3 (FLT3),-0.1824 fraction
same,Change from GRMD Baseline (fraction): Renin (REN),-0.0274 fraction
same,Change from GRMD Baseline (fraction): Retinoblastoma-associated protein (RB1),-0.0961 fraction
same,Change from GRMD Baseline (fraction): S-formylglutathione hydrolase (ESD),-0.2877 fraction
same,Change from GRMD Baseline (fraction): Serine/threonine-protein kinase 17B (STK17B),-0.0905 fraction
same,Change from GRMD Baseline (fraction): Serine/threonine-protein kinase Chk2 (CHEK2),0.2279 fraction
same,Change from GRMD Baseline (fraction): Serine/threonine-protein kinase WNK3 (WNK3),-0.1692 fraction
same,Change from GRMD Baseline (fraction): Serine/threonine-protein kinase receptor R3 (ACVRL1),-0.0902 fraction
same,Change from GRMD Baseline (fraction): Small nuclear ribonucleoprotein F (SNRPF),-0.0313 fraction
same,Change from GRMD Baseline (fraction): Somatostatin-28 (SST),0.1915 fraction
same,Change from GRMD Baseline (fraction): T-lymphocyte activation antigen CD80 (CD80),-0.0767 fraction
same,Change from GRMD Baseline (fraction): Thymic stromal lymphopoietin (TSLP),-0.0628 fraction
same,Change from GRMD Baseline (fraction): Thyroid peroxidase (TPO),-0.1126 fraction
same,Change from GRMD Baseline (fraction): Tissue factor pathway inhibitor (TFPI),0.0479 fraction
same,Change from GRMD Baseline (fraction): Transcription factor AP-1 (JUN),-0.1004 fraction
same,Change from GRMD Baseline (fraction): Transketolase (TKT),-0.3602 fraction
same,Change from GRMD Baseline (fraction): Translationally-controlled tumor protein (TPT1),-0.3694 fraction
same,Change from GRMD Baseline (fraction): Triosephosphate isomerase (TPI1),-0.5129 fraction
same,Change from GRMD Baseline (fraction): Tropomyosin beta chain (TPM2),-0.0815 fraction
same,"Change from GRMD Baseline (fraction): Troponin I, cardiac muscle (TNNI3)",0.0173 fraction
same,"Change from GRMD Baseline (fraction): Troponin I, fast skeletal muscle (TNNI2)",0.1681 fraction
same,"Change from GRMD Baseline (fraction): Troponin T, cardiac muscle (TNNT2)",0.0317 fraction
same,Change from GRMD Baseline (fraction): Tumor necrosis factor ligand superfamily member 11 (TNFSF11),-0.1211 fraction
same,Change from GRMD Baseline (fraction): Tumor necrosis factor receptor superfamily member 1B (TNFRSF1B),-0.1149 fraction
same,Change from GRMD Baseline (fraction): Tumor necrosis factor receptor superfamily member 3 (LTBR),-0.1112 fraction
